Patent US20240246908A1 (ORION CORPORATION, priority 2021, published 2024)

Tested on: YAP-TEAD
Experiment: TEAD inhibition, Hippo Pathway TEAD Reporter MCF-7 luciferase assay
Type: cell-based
Details: Homo sapiens, MCF7, 24 h, Hippo Pathway TEAD Reporter MCF-7 cells, luciferase activity after 24 h; read-out: IC50 of the test compounds on YAP-TEAD inhibition (Group)
Procedure, shortened: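 IC50 derived from ONE-Glo luciferase luminescence after 24 h compound exposure (11 concentrations in quadruplicate, 0.1% DMSO control). Reporter: MCF-7 line expressing firefly luciferase under TEAD elements, constitutively activated by nuclear YAP1.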

## COCC(=O)N1C(=O)CCC1C(=O)Nc1cc(Oc2cc(C(F)(F)F)ccn2)ccc1OC (centres unmarked) [Compound 331, N-(2-Methoxy-5-((4-(trifluoromethyl)-pyridin-2-yl)oxy)phenyl)-1-(2-methoxyacetyl)-5-oxopyrrolidine-2-carboxamide]
  IC50: 50 to 300 nM

## COc1ccc(Oc2ccc(C(F)(F)F)cc2)cc1NC(=O)[C@@H]1CN(C)C(=O)N1 [Compound 332, (S)—N-(2-Methoxy-5-(4-(trifluoromethyl)phenoxy)phenyl)-1-methyl-2-oxo-imidazolidine-4-carboxamide]
  IC50: 301 to 2000 nM

## COCC(=O)N1C(=O)CC[C@H]1C(=O)Nc1cc(Oc2ccc(C(F)(F)F)cc2)ccc1OC [Compound 333, (S)—N-(2-Methoxy-5-(4-(trifluoromethyl)phenoxy)phenyl)-1-(2-methoxyacetyl)-5-oxopyrrolidine-2-carboxamide]
  IC50: 301 to 2000 nM

## COCC(=O)N1C(=O)CCC1C(=O)Nc1cc(Oc2ncc(C(F)(F)F)cc2F)ccc1OC (centres unmarked) [Compound 334, N-(5-((3-Fluoro-5-(trifluoromethyl)pyridin-2-yl)oxy)-2-methoxyphenyl)-1-(2-methoxyacetyl)-5-oxopyrrolidine-2-carboxamide]
  IC50: 50 to 300 nM

## COc1ccc(Oc2ccc(C(F)(F)F)cc2)cc1NC(=O)C1CNC(=O)C1 (centres unmarked) [Compound 335, N-(2-Methoxy-5-(4-(trifluoromethyl)phenoxy)phenyl)-5-oxopyrrolidine-3-carboxamide]
  IC50: < 50 nM

## COCC(=O)N1CCC[C@H]1C(=O)Nc1cc(Oc2ccc(C(F)(F)F)cc2)ccc1OC [Compound 336, (S)—N-(2-Methoxy-5-(4-(trifluoromethyl)phenoxy)phenyl)-1-(2-methoxyacetyl)-pyrrolidine-2-carboxamide]
  IC50: 50 to 300 nM

## COc1ccc(Oc2ccc(C(F)(F)F)cc2)cc1NC(=O)[C@@H]1CCCN1CC(N)=O [Compound 337, (S)-1-(2-Amino-2-oxoethyl)-N-(2-methoxy-5-(4-(trifluoromethyl)phenoxy)-phenyl)pyrrolidine-2-carboxamide]
  IC50: 50 to 300 nM

## COc1ccc(Oc2ccc(Cl)c(F)c2)cc1NC(=O)[C@@H]1CNC(=O)N1C [Compound 338, (S)—N-(5-(4-Chloro-3-fluorophenoxy)-2-methoxyphenyl)-3-methyl-2-oxo-imidazolidine-4-carboxamide]
  IC50: < 50 nM

## COc1ccc(Oc2ncc(C(F)(F)F)cc2F)cc1NC(=O)[C@@H]1CNC(=O)N1C [Compound 339, (S)—N-(5-((3-Fluoro-5-(trifluoromethyl)pyridin-2-yl)oxy)-2-methoxyphenyl)-3-methyl-2-oxoimidazolidine-4-carboxamide]
  IC50: < 50 nM

## COc1ccc(Oc2ccc(C(F)F)cc2)cc1NC(=O)[C@@H]1CNC(=O)N1C [Compound 340, (S)—N-(5-(4-(Difluoromethyl)phenoxy)-2-methoxyphenyl)-3-methyl-2-oxo-imidazolidine-4-carboxamide]
  IC50: < 50 nM

## COc1ccc(Oc2ccc(C(F)(F)F)cc2)cc1NC(=O)CC1C(=O)N(C)C(=O)N1C (centres unmarked) [Compound 341, 2-(1,3-Dimethyl-2,5-dioxoimidazolidin-4-yl)-N-(2-methoxy-5-(4-(trifluoro-methyl)phenoxy)phenyl)acetamide]
  IC50: 301 to 2000 nM

## COc1ccc(Oc2ccc(C(F)(F)F)cc2)cc1NC(=O)[C@@H]1CN(C)C(=O)N1C(C)=O [Compound 342, (S)-3-Acetyl-N-(2-methoxy-5-(4-(trifluoromethyl)phenoxy)phenyl)-1-methyl-2-oxoimidazolidine-4-carboxamide]
  IC50: 50 to 300 nM

## COc1ccc(Oc2ncc(C(F)(F)F)cc2F)cc1NC(=O)[C@@H]1CN(C)C(=O)N1C(C)=O [Compound 343, (S)-3-Acetyl-N-(5-((3-fluoro-5-(trifluoromethyl)pyridin-2-yl)oxy)-2-methoxy-phenyl)-1-methyl-2-oxoimidazolidine-4-carboxamide]
  IC50: 301 to 2000 nM

## COc1ccc(Oc2ccc(C(F)(F)F)cn2)cc1NC(=O)C1CNC(=O)C1 (centres unmarked) [Compound 344, N-(2-Methoxy-5-((5-(trifluoromethyl)pyridin-2-yl)oxy)phenyl)-5-oxopyrrolidine-3-carboxamide carboxamide]
  IC50: 301 to 2000 nM

## COc1ccc(Oc2ncc(C(F)(F)F)cc2Cl)cc1NC(=O)[C@@H]1CNC(=O)N1C [Compound 345, (S)—N-(5-((3-Chloro-5-(trifluoromethyl)pyridin-2-yl)oxy)-2-methoxyphenyl)-3-methyl-2-oxoimidazolidine-4-carboxamide]
  IC50: < 50 nM

## COc1ccc(Oc2ccc(C(F)(F)F)cn2)cc1NC(=O)[C@@H]1CN(C)C(=O)N1C [Compound 346, (S)—N-(2-Methoxy-5-((5-(trifluoromethyl)pyridin-2-yl)oxy)phenyl)-1,3-dimethyl-2-oxoimidazolidine-4-carboxamide]
  IC50: 50 to 300 nM

## COCC(=O)N1CCC[C@@H]1C(=O)Nc1cc(Oc2ccc(C(F)(F)F)cc2)ccc1OC [Compound 347, (R)—N-(2-Methoxy-5-(4-(trifluoromethyl)phenoxy)phenyl)-1-(2-methoxyacetyl)-pyrrolidine-2-carboxamide]
  IC50: 301 to 2000 nM

## COc1ccc(Oc2cccc(Cl)c2)cc1NC(=O)[C@@H]1CNC(=O)N1C [Compound 348, (S)—N-(5-(3-Chlorophenoxy)-2-methoxyphenyl)-3-methyl-2-oxoimidazolidine-4-carboxamide]
  IC50: < 50 nM

## COc1ccc(Oc2ccc(C(F)(F)F)cc2)cc1NC(=O)C1CC(=O)N(C)C1 (centres unmarked) [Compound 349, N-(2-Methoxy-5-(4-(trifluoromethyl)phenoxy)phenyl)-1-methyl-5-oxo-pyrrolidine-3-carboxamide]
  IC50: < 50 nM

## COc1ccc(Oc2ccc(C(F)(F)F)cc2Cl)cc1NC(=O)C1CCC(=O)N1 (centres unmarked) [Compound 350, N-(5-(2-Chloro-4-(trifluoromethyl)phenoxy)-2-methoxyphenyl)-5-oxopyrrolidi-ne-2-carboxamide]
  IC50: 50 to 300 nM

## CN1C(=O)NC[C@H]1C(=O)Nc1cc(Cl)cc(Oc2ccc(C(F)(F)F)cn2)c1 [Compound 351, (S)—N-(3-Chloro-5-((5-(trifluoromethyl)pyridin-2-yl)oxy)phenyl)-3-methyl-2-oxoimidazolidine-4-carboxamide]
  IC50: < 50 nM

## CN1C(=O)CCC1C(=O)Nc1cc(Cl)cc(Oc2ccc(C(F)(F)F)cn2)c1 (centres unmarked) [Compound 352, N-(3-Chloro-5-((5-(trifluoromethyl)pyridin-2-yl)oxy)phenyl)-1-methyl-5-oxopyrrolidine-2-carboxamide]
  IC50: < 50 nM

## COc1ccc(Oc2ccc(CF)cc2)cc1NC(=O)[C@@H]1CNC(=O)N1C [Compound 353, (S)—N-(5-(4-(Fluoromethyl)phenoxy)-2-methoxyphenyl)-3-methyl-2-oxoimidazolidine-4-carboxamide]
  IC50: 301 to 2000 nM

## COC(=O)CN1C(=O)CCC1C(=O)Nc1cc(Oc2ccc(C(F)(F)F)cc2)ccc1OC (centres unmarked) [Compound 354, Methyl 2-(2-((2-methoxy-5-(4-(trifluoromethyl)phenoxy)phenyl)carbamoyl)-5-oxopyrrolidin-1-yl)acetate]
  IC50: 301 to 2000 nM

## COc1ccc(Oc2ccc(C(F)(F)F)cc2)cc1NC(=O)[C@@H]1CNC(=O)C1 [Compound 355, (S)—N-(2-Methoxy-5-(4-(trifluoromethyl)phenoxy)phenyl)-5-oxopyrrolidine-3-carboxamide]
  IC50: < 50 nM

## COc1ccc(Oc2ccc(Cl)cc2)cc1NC(=O)[C@@H]1CNC(=O)N1C [Compound 356, (S)—N-(5-(4-Chlorophenoxy)-2-methoxyphenyl)-3-methyl-2-oxoimidazolidine-4-carboxamide]
  IC50: < 50 nM

## COc1ccc(Oc2ccc(C(F)(F)F)cc2)cc1NC(=O)[C@H]1CNC(=O)C1 [Compound 357, (R)—N-(2-Methoxy-5-(4-(trifluoromethyl)phenoxy)phenyl)-5-oxopyrrolidine-3-carboxamide]
  IC50: 50 to 300 nM

## COc1ccc(Oc2ncc(C(F)(F)F)cc2F)cc1NC(=O)[C@@H]1CCCN1C(C)=O [Compound 358, (S)-1-Acetyl-N-(5-((3-fluoro-5-(trifluoromethyl)pyridin-2-yl)oxy)-2-methoxyphenyl)pyrrolidine-2-carboxamide]
  IC50: 301 to 2000 nM

## COc1ccc(Oc2ncc(C(F)(F)F)cc2F)cc1NC(=O)[C@@H]1CN(C)C(=O)N1C [Compound 359, (S)—N-(5-((3-Fluoro-5-(trifluoromethyl)pyridin-2-yl)oxy)-2-methoxyphenyl)-1,3-dimethyl-2-oxoimidazolidine-4-carboxamide]
  IC50: 50 to 300 nM

## CN1C[C@@H](C(=O)Nc2cc(Oc3ccc(C(F)(F)F)cn3)cc3c2OCO3)N(C)C1=O [Compound 360, (S)-1,3-Dimethyl-2-oxo-N-(6-((5-(trifluoromethyl)pyridin-2-yl)oxy)benzo[d]-[1,3]dioxol-4-yl)imidazolidine-4-carboxamide]
  IC50: 50 to 300 nM

## CN1C(=O)NC[C@H]1C(=O)Nc1cc(Oc2ccc(C(F)(F)F)cn2)c(F)cc1F [Compound 361, (S)—N-(2,4-Difluoro-5-((5-(trifluoromethyl)pyridin-2-yl)oxy)phenyl)-3-methyl-2-oxoimidazolidine-4-carboxamide]
  IC50: < 50 nM

## CN1C(=O)NC[C@H]1C(=O)Nc1cc(F)cc(Oc2ccc(C(F)(F)F)cn2)c1 [Compound 362, (S)—N-(3-Fluoro-5-((5-(trifluoromethyl)pyridin-2-yl)oxy)phenyl)-3-methyl-2-oxoimidazolidine-4-carboxamide]
  IC50: < 50 nM

## CN1C(=O)CC[C@H]1C(=O)Nc1cc(Oc2ccc(C(F)(F)F)cc2)ccc1F [Compound 363, (S)—N-(2-Fluoro-5-(4-(trifluoromethyl)phenoxy)phenyl)-1-methyl-5-oxo-pyrrolidine-2-carboxamide]
  IC50: < 50 nM

## CN1C[C@@H](C(=O)Nc2cc(Oc3ccc(C(F)(F)F)cn3)cc3c2OCC3)N(C)C1=O [Compound 364, (S)-1,3-Dimethyl-2-oxo-N-(5-((5-(trifluoromethyl)pyridin-2-yl)oxy)-2,3-dihydrobenzofuran-7-yl)imidazolidine-4-carboxamide]
  IC50: 50 to 300 nM

## CN1C(=O)NC[C@H]1C(=O)Nc1cc(Oc2ccc(C(F)(F)F)cc2)ccc1F [Compound 365, (S)—N-(2-Fluoro-5-(4-(trifluoromethyl)phenoxy)phenyl)-3-methyl-2-oxo-imidazolidine-4-carboxamide]
  IC50: < 50 nM
